These results are taken from PubChem BioAssay AID330 (DTP/NCI, 2004).

For this assay, the system named is P388 leukemia ip, CD2F1 mice, survival T/C. The assay can be described thus: NCI In Vivo Anticancer Drug Screen. Data for tumor model P388 Leukemia (intraperitoneal) in CD2F1 (CDF1) mice. The conditions noted are these: endpoint: median survival time, higher = longer survival. Put shortly:
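Mice carrying the transplanted tumor received test compound or vehicle. Survival was recorded in each group, and the value is the treated-group measurement divided by that of the vehicle-treated control group.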

Where [1] appears, read: dose: 12.5 mg/kg/injection, schedule: Q01DX009 (ip), vehicle: Klucel (hydroxypropylcellulose) (HPC).
Where [2] appears, read: dose: 25.0 mg/kg/injection, schedule: Q01DX009 (ip), vehicle: Klucel (hydroxypropylcellulose) (HPC).
The mark [3] stands for this setting: dose: 50.0 mg/kg/injection, schedule: Q01DX009 (ip), vehicle: Klucel (hydroxypropylcellulose) (HPC).
The mark [4] stands for this setting: dose: 100.0 mg/kg/injection, schedule: Q01DX009 (ip), vehicle: Klucel (hydroxypropylcellulose) (HPC).
The mark [5] stands for this setting: dose: 60.0 mg/kg/injection, schedule: Q01DX005 (ip), vehicle: saline with Tween-80.
Setting [6] is: dose: 120.0 mg/kg/injection, schedule: Q01DX005 (ip), vehicle: saline with Tween-80.
Setting [7] is: dose: 240.0 mg/kg/injection, schedule: Q01DX005 (ip), vehicle: saline with Tween-80.
The mark [8] stands for this setting: dose: 25.0 mg/kg/injection, schedule: Q04DX002 (ip), vehicle: saline with Tween-80.
Where [9] appears, read: dose: 50.0 mg/kg/injection, schedule: Q04DX002 (ip), vehicle: saline with Tween-80.
Setting [10] is: dose: 100.0 mg/kg/injection, schedule: Q04DX002 (ip), vehicle: saline with Tween-80.
The mark [11] stands for this setting: dose: 12.5 mg/kg/injection, schedule: Q01DX009 (ip), vehicle: saline with Tween-80.
Where [12] appears, read: dose: 25.0 mg/kg/injection, schedule: Q01DX009 (ip), vehicle: saline with Tween-80.
Setting [13] is: dose: 50.0 mg/kg/injection, schedule: Q01DX009 (ip), vehicle: saline with Tween-80.

Molecules are shown by their SMILES. Where “and” joins values, the source holds several entries; their conditions need not be identical. Identical values can stand only once. Toxic doses and inconclusive results are not listed.

For the compound `CSc1cnc(N)s1`, the T/C was 108 % of control under setting [1], 115 % of control under setting [2], 100 % of control under setting [3] and 104 % of control under setting [4].

`CC(=O)CCC1C=CC(=O)O1` (stereo unspecified): the T/C is 112 % of control (dose: 60.0 mg/kg/injection, schedule: Q01DX005 (ip), vehicle: saline); 103 % of control (dose: 120.0 mg/kg/injection, schedule: Q01DX005 (ip), vehicle: saline); 111 % of control (dose: 240.0 mg/kg/injection, schedule: Q01DX005 (ip), vehicle: saline).

For `O=C(Nc1cc2c3ccccc3ccc2c2ccccc12)C(Cl)Cl`, the T/C runs as follows: under setting [5], 100 % of control; under setting [6], 100 % of control; under setting [7], 102 % of control.

On to `COc1c2occc2c(N=Cc2ccc([N+](=O)[O-])cc2)c2ccc(=O)oc12`, for which the T/C reads like this: (dose: 0.38 mg/kg/injection, schedule: Q01DX005 (ip), vehicle: saline with Tween-80) 99 % of control; (dose: 0.75 mg/kg/injection, schedule: Q01DX005 (ip), vehicle: saline with Tween-80) 98 % of control; (dose: 1.5 mg/kg/injection, schedule: Q01DX005 (ip), vehicle: saline with Tween-80) 90 % of control; (dose: 6.25 mg/kg/injection, schedule: Q01DX005 (ip), vehicle: saline with Tween-80) 87 % of control; (dose: 100.0 mg/kg/injection, schedule: Q01DX005 (ip), vehicle: saline with Tween-80) 87 % of control; (dose: 200.0 mg/kg/injection, schedule: Q01DX005 (ip), vehicle: saline with Tween-80) 98 % of control.

For `CCOC(=O)N1CCc2cc(OC)c(OC)cc2/C1=C/c1cc(Br)sc1Br`, the T/C was 102 % of control (dose: 100.0 mg/kg/injection, schedule: Q04DX002 (ip), vehicle: Klucel (hydroxypropylcellulose) (HPC)); 103 % of control (dose: 200.0 mg/kg/injection, schedule: Q04DX002 (ip), vehicle: Klucel (hydroxypropylcellulose) (HPC)); 105 % of control (dose: 400.0 mg/kg/injection, schedule: Q04DX002 (ip), vehicle: Klucel (hydroxypropylcellulose) (HPC)).

As to `N=C(N)c1ccc2[nH]c(/C=C/c3cc4ccc(C(=N)N)cc4o3)cc2c1`, the T/C (dose: 100.0 mg/kg/injection, schedule: Q04DX003 (ip), vehicle: suspension in saline) is 170 % of control.

Turning to `O=C1/C(=C/N2CCN(c3ccccc3)CC2)Cc2c(F)cccc21`, the T/C by setting is: (dose: 100.0 mg/kg/injection, schedule: Q04DX003 (ip), vehicle: Klucel (hydroxypropylcellulose) (HPC)) 100 % of control; (dose: 200.0 mg/kg/injection, schedule: Q04DX003 (ip), vehicle: Klucel (hydroxypropylcellulose) (HPC)) 97 % of control; (dose: 400.0 mg/kg/injection, schedule: Q04DX003 (ip), vehicle: Klucel (hydroxypropylcellulose) (HPC)) 100 % of control.

Turning to `CC(C)(O)c1ccccc1Br`, the T/C reads like this: under setting [3], 98 % of control; under setting [4], 99 % of control; (dose: 200.0 mg/kg/injection, schedule: Q01DX009 (ip), vehicle: Klucel (hydroxypropylcellulose) (HPC)) 102 % of control.

Take `CCCCc1ccc(-c2nn[nH]n2)nc1`: the T/C is, setting by setting: under setting [8], 101 % of control; under setting [9], 100 % of control and 102 % of control; under setting [10], 100 % of control and 102 % of control and 104 % of control; (dose: 200.0 mg/kg/injection, schedule: Q04DX002 (ip), vehicle: saline with Tween-80) 105 % of control and 123 % of control and 95 % of control.

With `NC(=S)Nc1ccccc1`, the T/C is, setting by setting: (dose: 2.5 mg/kg/injection, schedule: Q01DX009 (ip), vehicle: saline with Tween-80) 100 % of control; (dose: 2.5 mg/kg/injection, schedule: Q04DX003 (ip), vehicle: saline sonified) 100 % of control; (dose: 5.0 mg/kg/injection, schedule: Q01DX009 (ip), vehicle: saline with Tween-80) 100 % of control; (dose: 5.0 mg/kg/injection, schedule: Q04DX003 (ip), vehicle: saline sonified) 104 % of control; (dose: 10.0 mg/kg/injection, schedule: Q01DX009 (ip), vehicle: saline with Tween-80) 100 % of control; (dose: 10.0 mg/kg/injection, schedule: Q04DX003 (ip), vehicle: saline sonified) 95 % of control.

Turning to `c1ccc(CSC2=NCCN2)cc1`, the T/C by setting is: (dose: 12.5 mg/kg/injection, schedule: Q01DX009 (ip), vehicle: saline) 93 % of control; (dose: 50.0 mg/kg/injection, schedule: Q01DX009 (ip), vehicle: saline) 91 % of control.

For the compound `NNc1n[nH]c(=O)c2cnccc12`, the T/C under setting [8] is 96 % of control; the T/C under setting [9] is 93 % of control; the T/C under setting [10] was 100 % of control and 95 % of control.

For the compound `O=C1CCSC(=S)N1c1ccc(C(F)(F)F)cc1`, the T/C is, setting by setting: (dose: 50.0 mg/kg/injection, schedule: Q01DX009 (ip), vehicle: suspension in saline) 90 % of control; (dose: 100.0 mg/kg/injection, schedule: Q01DX009 (ip), vehicle: suspension in saline) 97 % of control; (dose: 200.0 mg/kg/injection, schedule: Q01DX009 (ip), vehicle: suspension in saline) 94 % of control.

Take `CCCC(CCC)=NNC(=S)SC`: the T/C runs as follows: under setting [11], 95 % of control; under setting [12], 95 % of control; under setting [13], 106 % of control and 95 % of control.

In the case of `NC1CCCCCCC1`, the T/C (dose: 50.0 mg/kg/injection, schedule: Q01DX005 (ip), vehicle: saline) was 94 % of control; the T/C (dose: 100.0 mg/kg/injection, schedule: Q01DX005 (ip), vehicle: saline) was 103 % of control; the T/C (dose: 200.0 mg/kg/injection, schedule: Q01DX005 (ip), vehicle: saline) was 117 % of control.

Consider `CSc1c(Cl)cc(Cl)cc1C(=O)O`, for which the T/C is 100 % of control and 110 % of control (dose: 16.5 mg/kg/injection, schedule: Q01DX009 (ip), vehicle: saline with Tween-80); 105 % of control and 106 % of control under setting [12]; 117 % of control and 97 % of control (dose: 37.5 mg/kg/injection, schedule: Q01DX009 (ip), vehicle: saline with Tween-80); 112 % of control (dose: 50.0 mg/kg/injection, schedule: Q01DX009 (ip), vehicle: saline + alcohol); 110 % of control (dose: 100.0 mg/kg/injection, schedule: Q01DX009 (ip), vehicle: saline + alcohol); 112 % of control (dose: 200.0 mg/kg/injection, schedule: Q01DX009 (ip), vehicle: saline + alcohol).

For the compound `Nc1nc2[nH]ccc2c(=O)[nH]1`, the T/C was 95 % of control under setting [11]; 94 % of control under setting [12]; 104 % of control under setting [13]; 113 % of control (dose: 100.0 mg/kg/injection, schedule: Q01DX009 (ip), vehicle: saline with Tween-80).

In the case of `COc1cc(Cc2nccc3cc(OC)c(OC)cc23)c(C(C)=O)cc1OC`, the T/C is, setting by setting: (dose: 3.13 mg/kg/injection, schedule: Q01DX009 (ip), vehicle: saline sonified) 123 % of control; under setting [1], 105 % of control; (dose: 12.5 mg/kg/injection, schedule: Q01DX009 (ip), vehicle: saline sonified) 161 % of control; under setting [2], 106 % of control; under setting [3], 113 % of control; (dose: 100.0 mg/kg/injection, schedule: Q04DX003 (ip), vehicle: saline with Tween-80) 100 % of control.

With `CC(C)(C)SC(=S)SCC(=O)c1ccc(F)cc1`, the T/C was 102 % of control under setting [5], 103 % of control under setting [6] and 102 % of control under setting [7].

For the compound `CCOC(=O)/C(=C(\C)N)n1[nH]c(=O)n(-c2ccccc2)c1=O`, the T/C is, setting by setting: (dose: 25.0 mg/kg/injection, schedule: Q01DX005 (ip), vehicle: Klucel (hydroxypropylcellulose) (HPC)) 98 % of control; (dose: 50.0 mg/kg/injection, schedule: Q01DX005 (ip), vehicle: Klucel (hydroxypropylcellulose) (HPC)) 100 % of control and 103 % of control; (dose: 100.0 mg/kg/injection, schedule: Q01DX005 (ip), vehicle: Klucel (hydroxypropylcellulose) (HPC)) 101 % of control and 96 % of control; (dose: 200.0 mg/kg/injection, schedule: Q01DX005 (ip), vehicle: Klucel (hydroxypropylcellulose) (HPC)) 98 % of control and 103 % of control.

Turning to `CCOC(=O)C(/C=N/NS(=O)(=O)c1ccc(C)cc1)c1ccccc1` (stereo unspecified), the T/C was 96 % of control (dose: 100.0 mg/kg/injection, schedule: Q04DX002 (ip), vehicle: saline); 94 % of control (dose: 200.0 mg/kg/injection, schedule: Q04DX002 (ip), vehicle: saline); 97 % of control (dose: 400.0 mg/kg/injection, schedule: Q04DX002 (ip), vehicle: saline).
